# Data as given in paper PMC6272893, “NO-Releasing Enmein-Type Diterpenoid Derivatives with Selective Antiproliferative Activity and Effects on Apoptosis-Related Proteins” (Molecules, 2016).
# Where two headings read alike, the source gives them in different places.
# Columns and labels:
# [1] = tested on: L-02 normal liver cells; experiment: MTT antiproliferative assay, L-02; type: cell-based; conditions: for IC50: 72 h, read-out: antiproliferative activity IC50, L-02
# Protocol: [The source words this procedure for another cell line and reports this cell line under the same test.] (§1) Cytotoxicity assay in vitro was employed by the MTT assay following the methodology described previously, which was performed in flat-bottomed 96-well plates. In short, exponentially growing MGC-803 cells at the log phase were added to each well at a density of 5 × 10^3 per well, then treated with serial dilutions of the compounds in three replicates at various concentrations (0.039–40 µg/mL). After 72 h, 20 µL of MTT solution (5 mg/mL) per well was added to each cultured medium. Then, DMSO was added to each well (150 µL/well). After 10 min at room temperature, the absorbance (OD) was read on a microplate reader at the wavelength of 490 nm (BIO-RAD Instruments Inc. 550, Hercules, CA, USA). In these experiments, taxol was used as the positive reference with the concentration of 10 µg/mL.
# [2] = tested on: CaEs-17 cells; experiment: MTT antiproliferative assay, CaEs-17; type: cell-based, human; conditions: Homo sapiens, CaEs17; MTT, 72 h, mean ± S.D. of three experiments
# Protocol: [The source words this procedure for another cell line and reports this cell line under the same test.] as §1
# [3] = tested on: Bel-7402 cells; experiment: MTT antiproliferative assay, Bel-7402; type: cell-based, human; conditions: Homo sapiens, Bel-7402; MTT, 72 h, mean ± S.D. of three experiments
# Protocol: [The source words this procedure for another cell line and reports this cell line under the same test.] as §1
# [4] = tested on: MGC-803 cells; experiment: MTT antiproliferative assay, MGC-803; type: cell-based, human; conditions: Homo sapiens, MGC-803; MTT, 72 h, mean ± S.D. of three experiments
# Protocol: as §1
# [5] = tested on: K562 cells; experiment: MTT antiproliferative assay, K562; type: cell-based, human; conditions: Homo sapiens, K562; MTT, 72 h, mean ± S.D. of three experiments
# Protocol: [The source words this procedure for another cell line and reports this cell line under the same test.] as §1
# [6] = MTT, mean ± S.D. of three experiments
Structure (SMILES),"IC50 [1, 6] [µM]",SI (selectivity index) ([1]; selectivity between tumor and normal liver cells),IC50 [2] [µM],IC50 [3] [µM],IC50 [4] [µM],IC50 [5] [µM],IC50 [1] [µM]
"C=C1C(=O)[C@]23[C@H](O)[C@H]1CC[C@H]2[C@@]12CO[C@]3(O)[C@@H](O)[C@@H]1C(C)(C)CC[C@@H]2O [Compound 1, oridonin, reference compound]",18.3 ± 0.8,about 2.4,11 ± 1,7.48 ± 0.32,5.69 ± 0.39,4.76 ± 0.32,
O=C(O)CCC(=O)OCCOc1no[n+]([O-])c1S(=O)(=O)c1ccccc1 [Compound 7a],37.8 ± 1.3,,24.3 ± 0.9,22 ± 0.8,25.4 ± 1.5,22.6 ± 2,
O=C(O)CCCC(=O)OCCOc1no[n+]([O-])c1S(=O)(=O)c1ccccc1 [Compound 7b],39.6 ± 1.4,,25.7 ± 1.4,22.3 ± 1.6,22.2 ± 2.5,24.2 ± 2.5,
O=C(O)c1ccccc1C(=O)OCCOc1no[n+]([O-])c1S(=O)(=O)c1ccccc1 [Compound 7c],41.3 ± 2.9,,23.8 ± 1,19.6 ± 1,24.6 ± 1.4,22.6 ± 1.7,
O=C(O)CCC(=O)OCCCOc1no[n+]([O-])c1S(=O)(=O)c1ccccc1 [Compound 7d],37.4 ± 0.8,,19.8 ± 1.3,17.8 ± 1.4,18.5 ± 0.8,17.5 ± 1.4,
O=C(O)CCCC(=O)OCCCOc1no[n+]([O-])c1S(=O)(=O)c1ccccc1 [Compound 7e],36.3 ± 2.1,,18.7 ± 1,18.6 ± 0.8,20 ± 1.1,18.5 ± 1.6,
O=C(O)c1ccccc1C(=O)OCCCOc1no[n+]([O-])c1S(=O)(=O)c1ccccc1 [Compound 7f],35.8 ± 1.3,,19.2 ± 0.7,16.7 ± 0.8,19.3 ± 0.6,17.5 ± 1,
O=C(O)CCC(=O)OCCCCOc1no[n+]([O-])c1S(=O)(=O)c1ccccc1 [Compound 7g],39.4 ± 2.6,,25.7 ± 0.7,22.7 ± 1,20.6 ± 1.7,24 ± 1.4,
O=C(O)CCCC(=O)OCCCCOc1no[n+]([O-])c1S(=O)(=O)c1ccccc1 [Compound 7h],35.4 ± 1.4,,22.9 ± 1.4,21.3 ± 0.7,23.5 ± 1,24.5 ± 1.4,
O=C(O)c1ccccc1C(=O)OCCCCOc1no[n+]([O-])c1S(=O)(=O)c1ccccc1 [Compound 7i],37.9 ± 2.8,,24.8 ± 1.5,22.4 ± 1.6,21.6 ± 1.5,23 ± 1.2,
C=C1C(=O)C23C(=O)OC4CCC(C)(C)C5C(=O)OCC45C2CCC1C3O (centres unmarked) [Compound 9],,,23.7 ± 1.8,16 ± 1.1,5.84 ± 0.57,2.64 ± 0.19,26.4 ± 1.3
C=C1C(=O)C23C(=O)OC4CCC(C)(C)C5C(=O)OCC45C2CCC1C3OC(=O)CCC(=O)OCCOc1no[n+]([O-])c1S(=O)(=O)c1ccccc1 (centres unmarked) [Compound 10a],24.4 ± 0.8,,5.68 ± 0.53,1.91 ± 0.09,2.84 ± 1.12,2.86 ± 0.05,
C=C1C(=O)C23C(=O)OC4CCC(C)(C)C5C(=O)OCC45C2CCC1C3OC(=O)CCCC(=O)OCCOc1no[n+]([O-])c1S(=O)(=O)c1ccccc1 (centres unmarked) [Compound 10b],22.1 ± 1.3,,5.56 ± 0.06,1.75 ± 0.12,2.67 ± 0.24,2.9 ± 0.17,
C=C1C(=O)C23C(=O)OC4CCC(C)(C)C5C(=O)OCC45C2CCC1C3OC(=O)c1ccccc1C(=O)OCCOc1no[n+]([O-])c1S(=O)(=O)c1ccccc1 (centres unmarked) [Compound 10c],31.2 ± 1.2,,4.02 ± 0.14,1.01 ± 0.04,1.6 ± 0.15,1.97 ± 0.18,
C=C1C(=O)C23C(=O)OC4CCC(C)(C)C5C(=O)OCC45C2CCC1C3OC(=O)CCC(=O)OCCCOc1no[n+]([O-])c1S(=O)(=O)c1ccccc1 (centres unmarked) [Compound 10d],27.4 ± 1,,4.84 ± 0.47,1.17 ± 0.02,2.03 ± 0.15,2.04 ± 0.1,
C=C1C(=O)C23C(=O)OC4CCC(C)(C)C5C(=O)OCC45C2CCC1C3OC(=O)CCCC(=O)OCCCOc1no[n+]([O-])c1S(=O)(=O)c1ccccc1 (centres unmarked) [Compound 10e],29.3 ± 0.9,,4.04 ± 0.23,1.12 ± 0.09,1.91 ± 0.09,2.02 ± 0.17,
C=C1C(=O)C23C(=O)OC4CCC(C)(C)C5C(=O)OCC45C2CCC1C3OC(=O)CCC(=O)OCCCCOc1no[n+]([O-])c1S(=O)(=O)c1ccccc1 (centres unmarked) [Compound 10g],33.9 ± 1.5,,5.52 ± 0.08,1.85 ± 0.11,2.8 ± 0.09,2.82 ± 0.22,
C=C1C(=O)C23C(=O)OC4CCC(C)(C)C5C(=O)OCC45C2CCC1C3OC(=O)CCCC(=O)OCCCCOc1no[n+]([O-])c1S(=O)(=O)c1ccccc1 (centres unmarked) [Compound 10h],29.8 ± 0.9,,5.48 ± 0.21,1.65 ± 0.12,2.65 ± 0.16,2.78 ± 0.2,
C=C1C(=O)C23C(=O)OC4CCC(C)(C)C5C(=O)OCC45C2CCC1C3OC(=O)c1ccccc1C(=O)OCCCCOc1no[n+]([O-])c1S(=O)(=O)c1ccccc1 (centres unmarked) [Compound 10i],27.7 ± 1.3,,4.13 ± 0.29,1.09 ± 0.09,1.64 ± 0.12,2.06 ± 0.16,
"CC(=O)O[C@H]1C(=O)[C@@]2(C)[C@H]([C@H](OC(=O)c3ccccc3)[C@]3(O)C[C@H](OC(=O)[C@H](O)[C@@H](NC(=O)c4ccccc4)c4ccccc4)C(C)=C1C3(C)C)[C@]1(OC(C)=O)CO[C@@H]1C[C@@H]2O [Taxol, reference compound]",3.73 ± 0.17,,0.43 ± 0.03,1.89 ± 0.09,4.65 ± 0.29,0.41 ± 0.02,
